In ChEMBL document CHEMBL4507295 (2021):

Assays:
[1] = target: Phosphatidylinositol 4,5-bisphosphate 3-kinase catalytic subunit beta isoform (Homo sapiens) (UniProt P42338); conditions: Compound concentration 1000.0 nM
[2] = target: 5-hydroxytryptamine receptor 6 (Homo sapiens) (UniProt P50406); conditions: Compound concentration 10.0 uM
[3] = target: Tyrosine-protein phosphatase non-receptor type 1 (Homo sapiens) (UniProt P18031); test: Protein Tyrosine Phosphatase, PTPN1 (PTP1B) Eurofins-Panlabs enzyme assay; parameters: substrate with concentration; conditions: Compound concentration 10.0 uM
Sequence of Tyrosine-protein phosphatase non-receptor type 1 (Homo sapiens) (P18031 whole entry): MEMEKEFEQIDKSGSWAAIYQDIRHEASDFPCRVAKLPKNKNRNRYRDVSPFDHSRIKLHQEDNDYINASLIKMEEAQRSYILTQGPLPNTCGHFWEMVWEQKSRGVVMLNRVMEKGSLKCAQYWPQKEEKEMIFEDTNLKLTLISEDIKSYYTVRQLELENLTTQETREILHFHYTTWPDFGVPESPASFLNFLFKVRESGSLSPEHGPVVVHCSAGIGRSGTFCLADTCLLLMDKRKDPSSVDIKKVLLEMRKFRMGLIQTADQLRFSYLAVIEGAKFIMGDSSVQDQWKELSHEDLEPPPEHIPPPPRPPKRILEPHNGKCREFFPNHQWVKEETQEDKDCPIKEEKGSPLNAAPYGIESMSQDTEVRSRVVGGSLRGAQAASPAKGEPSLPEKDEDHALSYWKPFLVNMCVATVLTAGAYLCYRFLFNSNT

Bos taurus = organism: Bos taurus; test: Phosphodiesterase PDE6 Eurofins-Panlabs enzyme assay; parameters: substrate with concentration [3H] cGMP + cGMP, incubation time 20 min, incubation temperature 25 °C; conditions: Compound concentration 100.0 uM
[4] = target: Epidermal growth factor receptor (Homo sapiens) (UniProt P00533); test: Protein Tyrosine Kinase, EGF Receptor Eurofins-Panlabs enzyme assay; parameters: substrate with concentration 10 µg/mL Poly(Glu:Tyr), incubation time 60 min, incubation temperature 25 °C; conditions: Compound concentration 10.0 uM
[5] = target: 5-hydroxytryptamine receptor 4 (Homo sapiens) (UniProt Q13639); test: Inhibition of Serotonin (5-Hydroxytryptamine) 5-HT4 at 10 µM in the Eurofins-Panlabs radioligand binding assay (Eurofins_assay_272000); conditions: Cavia porcellus; Compound concentration 10.0 uM
Sequence of 5-hydroxytryptamine receptor 4 (Homo sapiens) (Q13639 whole entry): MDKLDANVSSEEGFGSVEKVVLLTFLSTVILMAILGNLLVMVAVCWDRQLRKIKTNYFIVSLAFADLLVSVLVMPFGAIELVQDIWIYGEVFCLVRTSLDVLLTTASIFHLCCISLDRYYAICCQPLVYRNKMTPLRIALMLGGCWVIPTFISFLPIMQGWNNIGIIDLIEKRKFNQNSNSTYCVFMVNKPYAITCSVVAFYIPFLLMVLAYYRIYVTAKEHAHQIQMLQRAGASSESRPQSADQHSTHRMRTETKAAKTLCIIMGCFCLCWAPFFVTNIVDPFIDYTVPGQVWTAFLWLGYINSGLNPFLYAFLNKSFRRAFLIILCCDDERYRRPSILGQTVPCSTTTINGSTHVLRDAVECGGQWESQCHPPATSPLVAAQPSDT

[6] = target: Cysteinyl leukotriene receptor 1 (Homo sapiens) (UniProt Q9Y271); test: Inhibition of Leukotriene, Cysteinyl CysLT1 at 10 µM in the Eurofins-Panlabs radioligand binding assay (Eurofins_assay_250460); parameters: ligand concentration 0.3 nM, non-specific ligand with concentration 0.3 µM Leukotriene D4, incubation time 30 min, incubation temperature 25 °C; conditions: Compound concentration 10.0 uM
[7] = target: B1 bradykinin receptor (Homo sapiens) (UniProt P46663); test: Bradykinin B1 Eurofins-Panlabs radioligand binding assay; conditions: Compound concentration 10.0 uM
Rattus norvegicus [8] = organism: Rattus norvegicus; test: Inhibition of Glycine, Strychnine-Sensitive at 10 µM in the Eurofins-Panlabs radioligand binding assay (Eurofins_assay_239000); conditions: Compound concentration 10.0 uM
[9] = target: Prostaglandin D2 receptor (Homo sapiens) (UniProt Q13258); test: Prostanoid DP Eurofins-Panlabs radioligand binding assay; conditions: Compound concentration 10.0 uM
[10] = target: Muscarinic acetylcholine receptor M3 (Homo sapiens) (UniProt P20309); conditions: Compound concentration 10.0 uM
Sequence of Muscarinic acetylcholine receptor M3 (Homo sapiens) (P20309 whole entry, looked up): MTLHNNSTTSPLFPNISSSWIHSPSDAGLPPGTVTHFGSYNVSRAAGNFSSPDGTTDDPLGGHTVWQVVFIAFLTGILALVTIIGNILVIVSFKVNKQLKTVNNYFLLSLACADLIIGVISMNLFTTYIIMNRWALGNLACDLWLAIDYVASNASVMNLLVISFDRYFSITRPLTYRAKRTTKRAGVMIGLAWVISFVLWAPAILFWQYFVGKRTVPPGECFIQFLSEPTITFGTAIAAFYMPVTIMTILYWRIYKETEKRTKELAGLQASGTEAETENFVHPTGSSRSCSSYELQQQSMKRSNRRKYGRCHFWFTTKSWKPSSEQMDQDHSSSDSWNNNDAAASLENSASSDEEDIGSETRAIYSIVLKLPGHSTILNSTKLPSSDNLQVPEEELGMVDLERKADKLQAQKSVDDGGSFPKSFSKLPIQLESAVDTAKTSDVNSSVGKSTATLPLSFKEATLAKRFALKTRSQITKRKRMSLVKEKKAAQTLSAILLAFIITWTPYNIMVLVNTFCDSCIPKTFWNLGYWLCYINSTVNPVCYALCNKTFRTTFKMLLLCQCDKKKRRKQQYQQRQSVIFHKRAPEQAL

Rattus norvegicus [11] = organism: Rattus norvegicus; test: Potassium Channel [KA] Eurofins-Panlabs radioligand binding assay; parameters: ligand concentration 0.01 nM; conditions: Compound concentration 10.0 uM
[12] = target: Vasoactive intestinal polypeptide receptor 1 (Homo sapiens) (UniProt P32241); test: Inhibition of Vasoactive Intestinal Peptide VIP1 at 10 µM in the Eurofins-Panlabs radioligand binding assay (Eurofins_assay_287010); conditions: Compound concentration 10.0 uM
Sequence of Vasoactive intestinal polypeptide receptor 1 (Homo sapiens) (P32241 whole entry): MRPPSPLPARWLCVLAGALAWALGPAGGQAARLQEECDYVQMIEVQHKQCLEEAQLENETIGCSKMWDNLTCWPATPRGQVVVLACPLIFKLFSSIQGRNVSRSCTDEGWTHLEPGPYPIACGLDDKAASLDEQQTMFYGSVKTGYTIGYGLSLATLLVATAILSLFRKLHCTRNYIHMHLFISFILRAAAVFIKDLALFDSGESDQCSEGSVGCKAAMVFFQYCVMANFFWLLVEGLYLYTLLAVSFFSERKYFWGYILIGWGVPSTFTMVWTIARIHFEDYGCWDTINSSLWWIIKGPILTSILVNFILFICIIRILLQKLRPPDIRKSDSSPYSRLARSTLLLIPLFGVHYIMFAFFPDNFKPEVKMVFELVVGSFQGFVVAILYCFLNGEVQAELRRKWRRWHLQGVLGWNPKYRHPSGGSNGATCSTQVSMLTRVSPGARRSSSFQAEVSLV

Rattus norvegicus [13] = organism: Rattus norvegicus; test: Potassium Channel [SKCA] Eurofins-Panlabs radioligand binding assay; parameters: ligand concentration 0.005 nM; conditions: Compound concentration 10.0 uM
[14] = target: Histamine H1 receptor (Homo sapiens) (UniProt P35367); conditions: Compound concentration 10.0 uM
[15] = target: Vascular endothelial growth factor receptor 1 (Homo sapiens) (UniProt P17948); test: Protein Tyrosine Kinase, FLT1 (VEGFR-1) Eurofins-Panlabs enzyme assay; conditions: Compound concentration 10.0 uM
[16] = target: Sodium-dependent dopamine transporter (Homo sapiens) (UniProt Q01959); conditions: Compound concentration 10.0 uM
Rattus norvegicus [17] = organism: Rattus norvegicus; test: Serotonin (5-Hydroxytryptamine) 5-HT1, Non-Selective Eurofins-Panlabs radioligand binding assay; format: protein assay; conditions: Compound concentration 10.0 uM
[18] = target: ATP-sensitive inward rectifier potassium channel 11 (Cricetulus griseus) (UniProt A0A3L7HHE1); test: Inhibition of Potassium Channel [KATP] at 10 µM in the Eurofins-Panlabs radioligand binding assay (Eurofins_assay_265600); conditions: Cricetinae; Compound concentration 10.0 uM
Sequence of ATP-sensitive inward rectifier potassium channel 11 (Cricetulus griseus) (A0A3L7HHE1 as listed by the source): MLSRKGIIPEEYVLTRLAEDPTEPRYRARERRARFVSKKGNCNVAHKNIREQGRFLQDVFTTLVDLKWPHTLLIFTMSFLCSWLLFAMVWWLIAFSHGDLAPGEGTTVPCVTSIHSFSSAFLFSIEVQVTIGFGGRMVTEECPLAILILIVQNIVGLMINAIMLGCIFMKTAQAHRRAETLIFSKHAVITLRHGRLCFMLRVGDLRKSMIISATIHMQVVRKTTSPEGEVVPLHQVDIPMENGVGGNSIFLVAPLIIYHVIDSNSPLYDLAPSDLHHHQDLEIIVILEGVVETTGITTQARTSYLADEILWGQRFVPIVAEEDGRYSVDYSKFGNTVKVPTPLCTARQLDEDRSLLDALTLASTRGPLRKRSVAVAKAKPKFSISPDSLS

[19] = target: Melanocortin receptor 5 (Homo sapiens) (UniProt P33032); test: Inhibition of Melanocortin MC5 at 10 µM in the Eurofins-Panlabs radioligand binding assay (Eurofins_assay_251400); parameters: ligand concentration 0.035 nM; conditions: Compound concentration 10.0 uM
[20] = target: cGMP-specific 3',5'-cyclic phosphodiesterase (Homo sapiens) (UniProt O76074); conditions: Compound concentration 100.0 uM
[21] = target: T1, Tyrosine-protein phosphatase non-receptor type 2 (Homo sapiens) (UniProt P17706); test: Protein Tyrosine Phosphatase, PTPN2 (TCPTP) Eurofins-Panlabs enzyme assay; parameters: substrate with concentration DiFMUP, incubation time 60 min, incubation temperature 37 °C
T1 sequence (whole entry): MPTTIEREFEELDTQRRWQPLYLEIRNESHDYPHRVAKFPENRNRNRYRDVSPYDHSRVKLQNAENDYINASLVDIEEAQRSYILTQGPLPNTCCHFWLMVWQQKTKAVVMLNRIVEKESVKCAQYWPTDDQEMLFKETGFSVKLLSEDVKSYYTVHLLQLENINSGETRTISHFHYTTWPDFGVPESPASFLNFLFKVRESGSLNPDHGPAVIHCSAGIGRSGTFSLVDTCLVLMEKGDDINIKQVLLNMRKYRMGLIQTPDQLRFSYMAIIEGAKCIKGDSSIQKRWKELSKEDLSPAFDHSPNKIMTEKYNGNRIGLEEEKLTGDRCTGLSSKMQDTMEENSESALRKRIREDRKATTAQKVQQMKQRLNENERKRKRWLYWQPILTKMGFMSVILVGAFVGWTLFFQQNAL

[22] = target: Somatostatin receptor type 1 (Homo sapiens) (UniProt P30872); test: Somatostatin sst1 Eurofins-Panlabs radioligand binding assay; parameters: ligand concentration 0.1 nM; conditions: Compound concentration 10.0 uM
[23] = target: Mu-type opioid receptor (Homo sapiens) (UniProt P35372); conditions: Compound concentration 10.0 uM
[24] = target: D(2) dopamine receptor (Homo sapiens) (UniProt P14416); conditions: Compound concentration 10.0 uM
Sequence of D(2) dopamine receptor (Homo sapiens) (P14416 whole entry): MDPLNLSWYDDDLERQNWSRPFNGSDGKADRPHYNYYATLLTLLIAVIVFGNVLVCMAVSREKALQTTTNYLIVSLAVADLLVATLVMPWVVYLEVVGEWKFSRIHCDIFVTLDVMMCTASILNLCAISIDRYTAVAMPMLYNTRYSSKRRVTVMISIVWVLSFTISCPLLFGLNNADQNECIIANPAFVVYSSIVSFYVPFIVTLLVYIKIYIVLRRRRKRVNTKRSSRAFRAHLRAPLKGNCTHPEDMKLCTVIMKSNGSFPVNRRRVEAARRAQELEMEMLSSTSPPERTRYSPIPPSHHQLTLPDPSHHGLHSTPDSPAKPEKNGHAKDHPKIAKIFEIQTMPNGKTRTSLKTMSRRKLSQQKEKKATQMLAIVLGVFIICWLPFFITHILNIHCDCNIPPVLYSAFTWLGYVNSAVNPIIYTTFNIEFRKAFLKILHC

[25] = target: Estrogen receptor (Homo sapiens) (UniProt P03372); conditions: Compound concentration 10.0 uM
Sequence of Estrogen receptor (Homo sapiens) (P03372 whole entry): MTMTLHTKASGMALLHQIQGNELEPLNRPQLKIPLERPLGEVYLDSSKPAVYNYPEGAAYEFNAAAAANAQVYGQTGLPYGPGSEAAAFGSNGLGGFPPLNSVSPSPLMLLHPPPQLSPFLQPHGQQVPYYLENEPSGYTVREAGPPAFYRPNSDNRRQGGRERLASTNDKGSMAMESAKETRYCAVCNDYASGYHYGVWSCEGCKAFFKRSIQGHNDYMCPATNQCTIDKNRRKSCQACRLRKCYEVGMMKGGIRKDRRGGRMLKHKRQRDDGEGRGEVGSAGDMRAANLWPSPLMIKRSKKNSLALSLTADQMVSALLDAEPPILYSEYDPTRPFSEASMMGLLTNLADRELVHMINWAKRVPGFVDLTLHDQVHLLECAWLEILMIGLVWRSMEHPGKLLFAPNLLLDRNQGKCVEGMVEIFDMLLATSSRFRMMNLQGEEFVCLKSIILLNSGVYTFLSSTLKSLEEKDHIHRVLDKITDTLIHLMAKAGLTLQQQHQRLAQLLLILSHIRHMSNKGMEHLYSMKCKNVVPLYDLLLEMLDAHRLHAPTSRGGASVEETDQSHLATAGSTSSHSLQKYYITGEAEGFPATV

[26] = target: Peroxisome proliferator-activated receptor alpha (Homo sapiens) (UniProt Q07869); test: PPARalpha Eurofins-Panlabs radioligand binding assay; conditions: Compound concentration 10.0 uM
[27] = target: Peroxisome proliferator-activated receptor gamma (Homo sapiens) (UniProt P37231); test: PPARgamma Eurofins-Panlabs radioligand binding assay; parameters: ligand concentration 5 nM, non-specific ligand with concentration 0.5 µM L-797773, incubation time 18 h, incubation temperature 15 °C; conditions: Compound concentration 10.0 uM
[28] = target: GABA-A receptor; alpha-5/beta-3/gamma-2 (Homo sapiens) (UniProt P18507+P28472+P31644); test: GABA-alpha5beta3gamma2 Eurofins-Panlabs radioligand binding assay; format: protein-complex assay; parameters: ligand concentration 1 nM; conditions: Compound concentration 10.0 uM
Homo sapiens = organism: Homo sapiens; test: Calcitonin Gene-Related Peptide CGRP1 Eurofins-Panlabs radioligand binding assay; format: protein-complex assay; conditions: Compound concentration 10.0 uM
[29] = target: T2, 5-hydroxytryptamine receptor 2C (Homo sapiens) (UniProt P28335); conditions: Compound concentration 10.0 uM
T2 sequence (whole entry): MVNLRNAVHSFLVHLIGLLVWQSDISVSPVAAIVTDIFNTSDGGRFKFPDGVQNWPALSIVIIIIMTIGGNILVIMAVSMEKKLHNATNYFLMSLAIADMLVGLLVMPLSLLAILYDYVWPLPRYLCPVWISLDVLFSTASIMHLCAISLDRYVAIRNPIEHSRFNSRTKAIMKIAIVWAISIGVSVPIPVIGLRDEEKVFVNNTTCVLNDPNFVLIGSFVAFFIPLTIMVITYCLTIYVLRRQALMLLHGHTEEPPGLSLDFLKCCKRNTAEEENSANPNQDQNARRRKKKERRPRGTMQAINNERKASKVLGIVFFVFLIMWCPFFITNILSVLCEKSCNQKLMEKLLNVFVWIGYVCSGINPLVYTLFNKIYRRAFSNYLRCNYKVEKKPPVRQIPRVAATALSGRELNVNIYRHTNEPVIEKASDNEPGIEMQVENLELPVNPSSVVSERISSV

Sequence of 5-hydroxytryptamine receptor 6 (Homo sapiens) (P50406 whole entry): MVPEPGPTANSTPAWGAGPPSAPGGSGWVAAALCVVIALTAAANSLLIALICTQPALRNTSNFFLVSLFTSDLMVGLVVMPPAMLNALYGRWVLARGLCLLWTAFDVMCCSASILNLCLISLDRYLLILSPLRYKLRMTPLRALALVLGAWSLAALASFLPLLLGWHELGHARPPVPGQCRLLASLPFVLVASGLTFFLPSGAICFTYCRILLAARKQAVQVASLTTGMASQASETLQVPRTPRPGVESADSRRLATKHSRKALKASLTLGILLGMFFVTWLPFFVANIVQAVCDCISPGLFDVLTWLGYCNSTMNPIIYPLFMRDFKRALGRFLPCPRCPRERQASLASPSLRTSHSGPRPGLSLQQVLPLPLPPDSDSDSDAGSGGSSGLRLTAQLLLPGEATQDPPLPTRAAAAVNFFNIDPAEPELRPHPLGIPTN
Sequence of Phosphatidylinositol 4,5-bisphosphate 3-kinase catalytic subunit beta isoform (Homo sapiens) (P42338 whole entry, looked up, canonical isoform): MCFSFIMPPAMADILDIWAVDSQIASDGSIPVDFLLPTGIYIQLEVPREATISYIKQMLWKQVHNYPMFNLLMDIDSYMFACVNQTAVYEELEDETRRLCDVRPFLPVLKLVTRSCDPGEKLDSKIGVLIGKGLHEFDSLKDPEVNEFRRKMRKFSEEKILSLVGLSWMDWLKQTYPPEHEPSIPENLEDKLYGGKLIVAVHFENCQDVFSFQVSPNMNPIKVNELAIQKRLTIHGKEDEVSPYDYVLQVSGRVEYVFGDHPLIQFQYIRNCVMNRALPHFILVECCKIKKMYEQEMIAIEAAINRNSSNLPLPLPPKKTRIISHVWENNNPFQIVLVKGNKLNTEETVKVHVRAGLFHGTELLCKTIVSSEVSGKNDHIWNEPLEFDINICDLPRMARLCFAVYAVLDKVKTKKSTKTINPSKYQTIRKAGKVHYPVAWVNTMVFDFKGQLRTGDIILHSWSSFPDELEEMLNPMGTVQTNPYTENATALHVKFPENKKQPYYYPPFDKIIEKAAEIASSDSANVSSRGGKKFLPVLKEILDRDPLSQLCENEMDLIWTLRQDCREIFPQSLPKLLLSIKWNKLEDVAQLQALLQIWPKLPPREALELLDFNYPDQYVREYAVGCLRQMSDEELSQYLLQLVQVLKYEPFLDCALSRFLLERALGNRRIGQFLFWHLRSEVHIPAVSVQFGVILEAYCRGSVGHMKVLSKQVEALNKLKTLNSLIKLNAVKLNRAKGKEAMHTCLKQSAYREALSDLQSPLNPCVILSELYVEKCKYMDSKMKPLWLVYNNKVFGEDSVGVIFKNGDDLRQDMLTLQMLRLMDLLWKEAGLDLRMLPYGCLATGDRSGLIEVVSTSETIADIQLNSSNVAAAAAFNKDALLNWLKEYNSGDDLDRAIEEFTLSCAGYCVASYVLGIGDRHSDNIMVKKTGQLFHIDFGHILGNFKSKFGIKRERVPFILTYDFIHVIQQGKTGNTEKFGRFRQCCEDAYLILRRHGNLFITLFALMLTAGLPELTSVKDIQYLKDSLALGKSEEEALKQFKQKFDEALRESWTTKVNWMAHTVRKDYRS

N#CC1(c2ccccn2)CCN(Cc2cc(C(=O)N3CCCC3)c(=O)n3ccccc23)CC1
inactive: residual activity [1] 100% | inhibition [2] 2.79%

N#CC1(c2ccccn2)CCN(Cc2cc(C(=O)O)c(=O)n3ccccc23)CC1 [MSD-M1PAM]
inactive: inhibition [3] 34% | inhibition (Bos taurus) 5% | inhibition [4] 5% | inhibition [5] 6% | inhibition [6] -5% | inhibition [7] -6% | inhibition (Rattus norvegicus [8]) 33% | inhibition [9] 29% | inhibition [10] -6.58% | inhibition (Rattus norvegicus [11]) 17% | inhibition [12] 14% | inhibition (Rattus norvegicus [13]) -10% | inhibition [14] 5% | inhibition [15] 0% | inhibition [16] 0% | inhibition (Rattus norvegicus [17]) 5% | inhibition [18] 1% | inhibition [19] 1% | inhibition [20] 21% | inhibition ([21]; Compound concentration 0.01 uM) -4% | inhibition ([21]; Compound concentration 0.1 uM) -5% | inhibition ([21]; Compound concentration 1.0 uM) 4% | inhibition ([21]; Compound concentration 10.0 uM) 50% | inhibition [22] -3% | inhibition [23] 0% | inhibition [24] -9% | inhibition [25] -1% | inhibition [26] 11% | inhibition [27] 10% | inhibition [28] 14% | inhibition (Homo sapiens) -6% | inhibition [29] -8%
